Measurements reported in paper PMC5520691, “An enhanced bioluminescence-based Annexin V probe for apoptosis detection in vitro and in vivo” (Cell Death & Disease, 2017).

Target: T1, ArFP (Annexin V-Renilla luciferase RLuc8 fusion protein) (Homo sapiens, UniProt P08758)
T1 construct: gene ANXA5; Annexin V fused N-terminal to the RLuc8 reporter (Renilla reniformis luciferase mutant) via a short linker (GGSGGS by the primers); N-terminal 6xHis tag, pET-30 Xa/LIC, E. coli T7 Express, Ni-NTA; primers cover the Annexin V start (ATGGCACAGGTTCTC, MAQVL) and end (CGEDD)
T1 sequence (P08758 1-320): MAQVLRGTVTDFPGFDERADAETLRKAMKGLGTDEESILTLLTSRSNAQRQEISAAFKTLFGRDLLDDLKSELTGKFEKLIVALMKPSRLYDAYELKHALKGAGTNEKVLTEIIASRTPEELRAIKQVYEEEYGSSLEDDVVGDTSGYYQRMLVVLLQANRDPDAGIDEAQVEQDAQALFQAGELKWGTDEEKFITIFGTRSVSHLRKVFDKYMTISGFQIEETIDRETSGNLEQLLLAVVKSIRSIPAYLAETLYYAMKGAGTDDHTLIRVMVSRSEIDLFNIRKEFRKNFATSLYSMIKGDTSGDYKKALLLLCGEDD
Assay: isothermal titration calorimetry, vesicles titrated into protein, independent binding model
Conditions: read-out: Binding affinity for PS (KD)

For `CCCCCCCC/C=C\CCCCCCCC(=O)O[C@H](COC(=O)CCCCCCCCCCCCCCC)COP(=O)(O)OC[C@H](N)C(=O)O` [POPS, 1-palmitoyl-2-oleoyl-sn-glycero-3-[phospho-L-serine]], the Kd was 20.7 µM.
